Values of other authors as cited in patent publication US11464797B2, “Use of vitamin composition in preparing drug for preventing, treating, or delaying Alzheimer's disease” (Zensun (Shanghai) Science & Technology, Co., Ltd., priority 2017, dated 2022).

Experiments:
[1] = tested on: ATP level in CA1 area; details: after 10 min of hypoxia in rats, magnesium ion treated brain slices; untreated 16% of normal
[2] = tested on: patients with mild cognitive impairment (MCI); details: long-term intake (6-48 months)

| Compound | ATP level, of normal brain slices [1] | cognitive function [2] |
| --- | --- | --- |
| [Mg+2] [magnesium ion, magnesium] | 32% | – |
| vitamin E | – | effectively improve cognitive function |
